Key:
[1] = target: T1, human TLR8 (Homo sapiens, UniProt Q9NR97); experiment: HEK-Blue hTLR8 NF-kB-inducible SEAP reporter assay (TLR8 activation); format: cell-based
T1 construct: host or cells: HEK293 (HEK-Blue hTLR8) with NF-kB-inducible SEAP reporter
T1 sequence (Q9NR97 27-1041): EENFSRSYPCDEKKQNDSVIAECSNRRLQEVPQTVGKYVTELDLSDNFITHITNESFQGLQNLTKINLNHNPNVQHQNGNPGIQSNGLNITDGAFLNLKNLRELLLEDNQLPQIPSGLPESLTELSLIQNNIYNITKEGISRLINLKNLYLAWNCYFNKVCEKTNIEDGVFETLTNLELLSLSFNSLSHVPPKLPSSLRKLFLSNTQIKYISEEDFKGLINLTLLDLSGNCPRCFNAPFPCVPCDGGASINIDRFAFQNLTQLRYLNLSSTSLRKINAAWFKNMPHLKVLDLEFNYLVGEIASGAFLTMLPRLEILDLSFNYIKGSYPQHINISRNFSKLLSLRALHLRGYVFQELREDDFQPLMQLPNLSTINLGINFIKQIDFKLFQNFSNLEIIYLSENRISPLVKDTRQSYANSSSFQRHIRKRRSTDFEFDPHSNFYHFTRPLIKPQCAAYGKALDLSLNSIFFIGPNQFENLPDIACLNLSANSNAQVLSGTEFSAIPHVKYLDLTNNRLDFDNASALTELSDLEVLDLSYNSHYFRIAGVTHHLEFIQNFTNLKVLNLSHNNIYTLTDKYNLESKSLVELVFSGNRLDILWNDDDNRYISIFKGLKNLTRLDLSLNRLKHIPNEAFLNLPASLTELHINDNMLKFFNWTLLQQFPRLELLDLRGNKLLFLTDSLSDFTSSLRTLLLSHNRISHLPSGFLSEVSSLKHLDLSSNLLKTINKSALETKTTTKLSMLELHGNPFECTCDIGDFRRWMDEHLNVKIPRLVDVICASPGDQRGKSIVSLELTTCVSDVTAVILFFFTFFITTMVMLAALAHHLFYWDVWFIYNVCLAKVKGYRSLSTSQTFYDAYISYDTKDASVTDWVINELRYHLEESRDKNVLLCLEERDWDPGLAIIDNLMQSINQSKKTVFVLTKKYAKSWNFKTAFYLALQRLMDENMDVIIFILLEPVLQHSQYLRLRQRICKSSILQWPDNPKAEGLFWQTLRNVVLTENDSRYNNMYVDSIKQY

[2] = tested on: HEK-Blue™ Null; format: cell-based, human

## 5′-GAGAUGUUAUUUUGUUUUUAAUAUUUC-3′ (phosphorothioate backbone, further chemistry not given here) [SL-0001, phosphorothioated 27-ribonucleotide from the 3′-terminus of Chikungunya virus strain TSI-GSD-218, bases 12010-12036]
[1]
  TLR8 activation (fold increase of SEAP induction over the background), described in words: stronger levels of TLR8 activation
  concentration at which TLR8 activation was detected starting: 40 nM
[2]
  activation of SEAP expression: No activation of SEAP expression

From US20120177701A1, “COMPOSITIONS COMPRISING IMMUNOSTIMULATORY NUCLEIC ACIDS AND RELATED METHODS” (priority 2010, published 2012)
